Broadly, the Cmax is the maximum level reached in the sampled fluid or tissue. As usually defined, the Tmax is the time from dosing to the highest level.

Results on one molecule are retold here after article PMC7961214 (Advanced Pharmaceutical Bulletin, 2020).

Structures are written as SMILES. Read-outs that look alike come from different tables or passages of the source.

For data set [1] the following is noted: cited from earlier work.
A short description of data set [2]: Particle size and distribution (Delsa Nanoparticle Size Analyzer). The class given is physicochemical. The text has this: The examination of particle size and distribution of particles from nanoparticles was done using the Delsa™ Nanoparticle Size Analyzer (Beckman Coulter, Brea, USA).
Data set [3] is described as follows: In vivo pharmacokinetic study, curcumin plasma concentration by UPLC-MS/MS. Also on record: species or system female Wistar rats. The settings on record: rats, single oral dose 100 mg/kg BW, mean ± SE (n = 5). How it is done:
The pharmacokinetic evaluation was carried out after obtaining approval from the Ethics Committee of the Faculty of Medicine Universitas Indonesia (approval number: 1188/ UN.2 F1/ETIK/2018). A pharmacokinetic study was carried out in female Wistar rats to determine the pharmacokinetic profile of curcumin particles and nanoparticles. Rats weighing 150–200 g were obtained and maintained at the Biomedical Research Center and Basic Health Technology Laboratory, Balitbangkes, Republic of Indonesia, Ministry of Health. The rats were placed in a room with constant temperature and humidity, adequate lighting, pellet food, and water ad libitum.
For each analysis, blood samples were pooled from six rats. […] Blood samples were taken from the rats tail vein using EDTA tubes. Blood samples were centrifuged at 3000 rpm for 15 minutes to obtain plasma, then stored at -80°C until analysis.
The LC-MS/MS system used was UPLC Waters and tandem mass spectrometry with a positive electrospray ionization source. Separation of analyte in the sample was carried using a liquid chromatography system with Acquity UPLC® BEH C18 column and mobile phase gradient in the form of 0.1% and acetonitrile formic acid with a ratio of 72:28 with analyte rate of 0.3 mL/min and injection volume of 3 µL. […] The calibration curve of a standard solution was made with the final level of the analytes at 1, 2.5, 5, 10, 25, and 50 ng/mL.[24]
The pharmacokinetic profiles were represented as mean and standard error (SE) from each group and were estimated through non-compartmental analysis. […] The area under the curve (AUC) from the beginning to the endpoint ( AUC^0→3 ) was calculated using the trapezoidal method. AUC^0→∞ is the amount of the AUC per time interval from 0 to the time of infinity, calculated by AUC^0→3 […]; Cpn is the plasma concentration at the last sampling time. […] The t1/2 was counted using the equation t1/2 = ln 2/Ke, and the CL was calculated by dividing the dose by AUC^0→∞ .[25]

The conditions of data set [4]: 340 mg/kg given orally ref Timothy et al; cited from earlier work.
For data set [5] the following is noted: cited from earlier work. The source holds these as a separate data set.

As to `COc1cc(/C=C/C(=O)CC(=O)/C=C/c2ccc(O)c(OC)c2)ccc1O` [Curcumin particles, Curcumin], in data set [1], the bioavailability result is “approximately 1%”. This molecule returned a mean particle size in data set [2] of 16103.4 nm. Moreover, in data set [3] (female, Wistar, rat), the maximum concentration (Cmax) turned out to be 1.51 ± 0.401 ng/mL and the Tmax was 44 min. The AUC(0-t) in data set [3] (female, Wistar, rat, read-out: AUC0-3) worked out at 1.5 ± 0.401 ng·h/mL. Moreover, the AUC in data set [3] (female, Wistar, rat, read-out: AUC0-~) was 1.71 ± 0.535 ng·h/mL. The k el in data set [3] (female, Wistar, rat, read-out: Ke (converted)) was 0.000327 s⁻¹. The half-life in data set [3] (female, Wistar, rat, read-out: t1/2 elimination (converted)) was 51.5 ± 12.8 min. This molecule also returned a Ka in data set [3] (residual method) of 1.958 ± 0.468 h⁻¹. Also, in data set [4], the Tmax was 30 min. Besides, the partition coefficient in data set [5] is reported as 2.3–2.6.
